# From article PMC9632086, “Phosphodiesterase 10A (PDE10A) as a novel target to suppress β-catenin and RAS signaling in epithelial ovarian cancer” (Journal of Ovarian Research, 2022)
# Biological target: T1, PDE10A (Homo sapiens, UniProt Q9Y233)
# T1 construct: endogenous PDE10A in SKOV3 cells
# Test: cellular cAMP immunoassay after […] for […] min, parental and empty-vector cells versus PDE10A knockout clones
# Type: cell-based
# T1 sequence (Q9Y233 whole entry): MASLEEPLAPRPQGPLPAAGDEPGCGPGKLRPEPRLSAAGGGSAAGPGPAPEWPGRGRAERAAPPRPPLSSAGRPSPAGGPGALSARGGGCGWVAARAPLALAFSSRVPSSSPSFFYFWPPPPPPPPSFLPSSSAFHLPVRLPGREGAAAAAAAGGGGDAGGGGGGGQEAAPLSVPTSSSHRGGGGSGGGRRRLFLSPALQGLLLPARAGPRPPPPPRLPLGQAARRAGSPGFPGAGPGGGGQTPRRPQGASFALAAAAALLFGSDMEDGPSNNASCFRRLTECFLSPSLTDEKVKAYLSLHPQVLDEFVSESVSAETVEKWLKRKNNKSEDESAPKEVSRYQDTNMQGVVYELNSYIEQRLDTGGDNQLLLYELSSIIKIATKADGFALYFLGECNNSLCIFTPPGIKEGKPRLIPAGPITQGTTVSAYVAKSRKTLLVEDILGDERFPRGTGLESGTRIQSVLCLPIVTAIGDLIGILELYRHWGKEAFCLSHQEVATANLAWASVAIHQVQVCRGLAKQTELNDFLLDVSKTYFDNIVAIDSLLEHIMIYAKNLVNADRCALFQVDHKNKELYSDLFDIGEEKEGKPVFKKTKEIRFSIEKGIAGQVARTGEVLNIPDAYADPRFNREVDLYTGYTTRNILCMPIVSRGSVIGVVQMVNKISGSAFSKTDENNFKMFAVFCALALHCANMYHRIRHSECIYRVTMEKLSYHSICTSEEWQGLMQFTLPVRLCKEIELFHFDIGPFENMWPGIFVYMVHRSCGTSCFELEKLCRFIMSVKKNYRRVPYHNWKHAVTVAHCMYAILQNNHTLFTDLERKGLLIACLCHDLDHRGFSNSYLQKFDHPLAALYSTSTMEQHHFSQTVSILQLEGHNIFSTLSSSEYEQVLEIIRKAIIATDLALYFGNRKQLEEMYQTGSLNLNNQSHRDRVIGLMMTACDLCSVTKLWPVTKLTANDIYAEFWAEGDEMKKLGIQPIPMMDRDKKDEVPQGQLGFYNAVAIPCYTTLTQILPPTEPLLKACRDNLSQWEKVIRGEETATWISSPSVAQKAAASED
smiles,measurement,value
COc1ccc2c(c1)C(CC(=O)Nc1cccnc1)=C(C)/C2=C/c1cc(OC)c(OC)c(OC)c1 [MCI-030],cellular cAMP level,"MCI-030 increased cAMP only in SKOV3 parental and EV 1B9 control cells, but not in the PDE10A KO clones"
